From patent US10815238B2, “Antimicrobial compounds and methods of making and using the same” (BIOVERSYS AG, priority 2013, dated 2020) come the findings set out here.

The test system of experiment [1] is Staphylococcus aureus (S. aureus) 11540 strain. Description: Standard microdilution assay, MIC against S. aureus 11540. The experiment is classed as cell-based. To be noted: S. aureus 11540 strain, standard microdilution assay, cutoff 16 micrograms/mL, read-out: MIC S. aureus. The method in brief: (§1)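 Scoring as + or − used a 16 micrograms/mL cutoff on minimum inhibitory concentrations. These came from CLSI-standard microdilution, quality-controlled with reference strains tested in the same run.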

The subject of experiment [2] is Eschericia coli (E. coli) strain ATCC25922. Description: Standard microdilution assay, MIC against E. coli ATCC25922. It counts as cell-based. The following applies: Escherichia coli; E. coli strain ATCC25922, standard microdilution assay; cutoff 16 micrograms/mL; read-out: MIC E. Coli. The method in brief: as §1

One may read the MIC as the lowest concentration found to suppress growth. As to `C[C@H](N)CCCc1cc(Cl)c(F)c(-c2cc3cn(-c4ccc([C@H]5CCO[C@H](CCN)C5)cc4)c(=O)nc3[nH]2)c1` [Compound 554], the MIC in experiment [1] and in experiment [2] was less than 16 µg/mL each time.

For `COC[C@H](CCN[C@@H](C)c1ccc(-n2cc3cc(-c4cc(CCC[C@H](C)N)cc(Cl)c4F)[nH]c3nc2=O)cc1)NC(=N)N` [Compound 345], the MIC in experiment [1] and in experiment [2] was less than 16 µg/mL in each case.

For `CC#C[C@H](CCNC(=N)N)NCc1ccc(-n2cc3cc(-c4cc(CCC[C@H](C)N)cc(Cl)c4F)[nH]c3nc2=O)cc1` [Compound 506], the MIC in experiment [1] and in experiment [2] was less than 16 µg/mL in each case.

As for `NCC[C@@H]1CCC[C@@H](c2ccc(-n3cc4cc(-c5ccc(S(=O)(=O)NC6CCNCC6)cc5)[nH]c4nc3=O)cc2)N1` [Compound 493], the minimal inhibitory concentration (MIC) in experiment [1] and in experiment [2] was less than 16 µg/mL each time.

Take `C[C@H](N)CCCc1cc(Cl)c(F)c(-c2cc3cn(-c4ccc(C(=N)NC5CCCC5)cc4)c(=O)nc3[nH]2)c1` [Compound 505]: the minimum inhibitory concentration (MIC) in experiment [1] and in experiment [2] was less than 16 µg/mL throughout.

`C[C@H](N)CCCc1cc(Cl)c(F)c(-c2cc3cn(-c4ccc([C@H](C)NCC[C@H](CC(N)=O)NC(=N)N)cc4)c(=O)nc3[nH]2)c1` [Compound 348]: the minimal inhibitory concentration (MIC) in experiment [1] and in experiment [2] was less than 16 µg/mL in each case.

Regarding `Cc1noc(C[C@@H]2CCC[C@@H](c3ccc(-n4cc5cc(-c6cc(CCC[C@H](C)N)cc(Cl)c6F)[nH]c5nc4=O)cc3)N2)n1` [Compound 497], the values for the MIC in experiment [1] and in experiment [2] were less than 16 µg/mL and greater than 16 µg/mL, respectively.

As for `COCC[C@H](CCN[C@@H](C)c1ccc(-n2cc3cc(-c4cc(CCC[C@H](C)N)cc(Cl)c4F)[nH]c3nc2=O)cc1)NC(=N)N` [Compound 347], the MIC in experiment [1] and in experiment [2] was less than 16 µg/mL in each case.

`C[C@H](N)CCCc1cc(Cl)c(F)c(-c2cc3cn(-c4ccc([C@@H]5CCC[C@@H](CNCc6nccn6C)N5)cc4)c(=O)nc3[nH]2)c1` [Compound 551]: the MIC in experiment [1] and in experiment [2] was greater than 16 µg/mL in each case.

For the molecule `C[C@@H](CN)CN1CC[C@@H](c2cc3cn(-c4ccc(C(=N)NCC[C@H](C)N)cc4)c(=O)nc3[nH]2)C1` [Compound 581], the minimal inhibitory concentration (MIC) in experiment [1] and in experiment [2] was less than 16 µg/mL throughout.

On to `C[C@@H](N)CCCc1cc(Cl)c(F)c(-c2cc3cn(-c4ccc([C@@H](C)NCCCNC(=N)N)cc4)c(=O)nc3[nH]2)c1` [Compound 370], for which the minimal inhibitory concentration (MIC) in experiment [1] and in experiment [2] was less than 16 µg/mL throughout.

Turning to `C[C@H](N)CCCc1cc(OC(F)(F)F)c(F)c(-c2cc3cn(-c4ccc([C@@H]5CCC[C@@H](CCNc6ncc[nH]6)N5)cc4)c(=O)nc3[nH]2)c1` [Compound 553], the minimal inhibitory concentration (MIC) in experiment [1] and in experiment [2] was less than 16 µg/mL each time.

Take `C[C@H](N)CCCc1cc(Cl)c(F)c(-c2cc3cn(-c4ccc([C@H](C)NCC[C@@H](CN5CCOCC5)NC(=N)N)cc4)c(=O)nc3[nH]2)c1` [Compound 341]: the MIC in experiment [1] and in experiment [2] was less than 16 µg/mL throughout.

Turning to `C[C@H](N)CCCc1cc(OC(F)(F)F)c(F)c(-c2cc3cn(-c4ccc([C@@H](C)NCCCNC(=N)N)cc4)c(=O)nc3[nH]2)c1` [Compound 321], the minimal inhibitory concentration (MIC) in experiment [1] and in experiment [2] was less than 16 µg/mL throughout.

For the molecule `C[C@H](N)CCCc1cc(OC(F)(F)F)c(F)c(-c2cc3cn(-c4ccc(C(=N)NCCCN)cc4)c(=O)nc3[nH]2)c1` [Compound 462], the minimal inhibitory concentration (MIC) in experiment [1] and in experiment [2] was less than 16 µg/mL throughout.

As to `C[C@H](N)CCCc1cc(Cl)c(F)c(-c2cc3cn(-c4ccc([C@@H]5CCC[C@@H](CCNC(=N)N)N5)cc4)c(=O)nc3[nH]2)c1` [Compound 420], the MIC in experiment [1] and in experiment [2] was less than 16 µg/mL each time.

With `C=C[C@@H](C[C@@H](C)NCc1ccc(-n2cc3cc(-c4cc(CCC[C@H](C)N)cc(Cl)c4F)[nH]c3nc2=O)cc1)NC(=N)N` [Compound 373], the MIC in experiment [1] and in experiment [2] was less than 16 µg/mL throughout.

Regarding `C[C@H](N)CCCc1cc(Cl)c(F)c(-c2cc3cn(-c4ccc(C(O)[C@@H]5C[C@@H](NC(=N)N)CN5)cc4)c(=O)nc3[nH]2)c1` (some centres unmarked) [Compound 447], the minimal inhibitory concentration (MIC) in experiment [1] and in experiment [2] was less than 16 µg/mL throughout.

Take `C[C@H](N)CCCc1cc(OC(F)(F)F)c(F)c(-c2cc3cn(-c4ccc([C@H](N)CCCNC(=N)N)cc4)c(=O)nc3[nH]2)c1` [Compound 457]: the minimal inhibitory concentration (MIC) in experiment [1] and in experiment [2] was less than 16 µg/mL in each case.

Consider `C[C@H](N)CCCc1cc(OC(F)(F)F)c(F)c(-c2cc3cn(-c4ccc(C(N)CNC(=N)N)cc4)c(=O)nc3[nH]2)c1` (some centres unmarked) [Compound 474], for which the minimal inhibitory concentration (MIC) in experiment [1] and in experiment [2] was less than 16 µg/mL throughout.

With `C[C@H](N)CCCc1cc(OC(F)(F)F)c(F)c(-c2cc3cn(-c4ccc([C@H](C)NCC[C@H](CCN)NC(=N)N)cc4)c(=O)nc3[nH]2)c1` [Compound 325], the MIC in experiment [1] and in experiment [2] was less than 16 µg/mL throughout.

For the molecule `C[C@H](N)CCCc1cc(Cl)c(F)c(-c2cc3cn(-c4ccc(C5(N)CNC5)cc4)c(=O)nc3[nH]2)c1` [Compound 458], the figures for the minimal inhibitory concentration (MIC) in experiment [1] and in experiment [2] were less than 16 µg/mL and greater than 16 µg/mL, respectively.

For the molecule `C[C@H](N)CCCc1cc(Cl)c(F)c(-c2cc3cn(-c4ccc([C@@H]5CCC[C@@H](CCc6c[nH]cn6)N5)cc4)c(=O)nc3[nH]2)c1` [Compound 549], the MIC in experiment [1] and in experiment [2] was less than 16 µg/mL in each case.

With `C[C@H](N)CCCc1cc(Cl)c(F)c(-c2cc3cn(-c4ccc([C@H](C)NCC[C@H](CN5CCOCC5)NC(=N)N)cc4)c(=O)nc3[nH]2)c1` [Compound 334], the minimum inhibitory concentration (MIC) in experiment [1] and in experiment [2] was less than 16 µg/mL each time.

Take `C[C@H](N)CCCc1cc(OC(F)(F)F)c(F)c(-c2cc3cn(-c4ccc(C(O)CNC(=N)N)cc4)c(=O)nc3[nH]2)c1` (some centres unmarked) [Compound 472]: the minimal inhibitory concentration (MIC) in experiment [1] and in experiment [2] was less than 16 µg/mL in each case.

`C[C@H](N)CCCc1cc(Cl)c(F)c(-c2cc3cn(-c4ccc(CNC5CC(NC(=N)N)C5)cc4)c(=O)nc3[nH]2)c1` (some centres unmarked) [Compound 563]: the minimum inhibitory concentration (MIC) in experiment [1] and in experiment [2] was less than 16 µg/mL each time.

In the case of `C[C@H](N)CCCc1cc(Cl)c(F)c(-c2cc3cn(-c4ccc([C@@H]5CCC[C@H](CCNC(=N)N)N5)cc4)c(=O)nc3[nH]2)c1` [Compound 438], the minimal inhibitory concentration (MIC) in experiment [1] and in experiment [2] was less than 16 µg/mL in each case.

With `C[C@H](N)CCCc1cc(Cl)c(F)c(-c2cc3cn(-c4ccc([C@@H]5COC[C@H](CCNC(=N)N)N5)cc4)c(=O)nc3[nH]2)c1` [Compound 384], the minimal inhibitory concentration (MIC) in experiment [1] and in experiment [2] was less than 16 µg/mL each time.
